Results on 1 molecule are retold here after paper PMC6934184, “Selective DNA-PKcs inhibition extends the therapeutic index of localized radiotherapy and chemotherapy” (The Journal of Clinical Investigation, 2019).

The structures appear in SMILES notation.

The assay addresses T1, EPHA7 (Homo sapiens, UniProt Q15375).
T1 construct: purchased Thermo Fisher Scientific (Life Technologies) SelectScreen
Nature of the assay: SelectScreen LanthaScreen. It is filed as binding. Conditions: read-out: % displacement. A digest of the protocol:
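Percent values come from Thermo SelectScreen profiling of NU5455, combining activity and binding assays. CSF1R was run in Z'LYTE format at Km app ATP, and CAMK1 in Adapta format with ATP listed at 10.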
Background: TR-FRET usually uses a lanthanide donor and a delayed reading to cut background.

T1 sequence (Q15375 28-998): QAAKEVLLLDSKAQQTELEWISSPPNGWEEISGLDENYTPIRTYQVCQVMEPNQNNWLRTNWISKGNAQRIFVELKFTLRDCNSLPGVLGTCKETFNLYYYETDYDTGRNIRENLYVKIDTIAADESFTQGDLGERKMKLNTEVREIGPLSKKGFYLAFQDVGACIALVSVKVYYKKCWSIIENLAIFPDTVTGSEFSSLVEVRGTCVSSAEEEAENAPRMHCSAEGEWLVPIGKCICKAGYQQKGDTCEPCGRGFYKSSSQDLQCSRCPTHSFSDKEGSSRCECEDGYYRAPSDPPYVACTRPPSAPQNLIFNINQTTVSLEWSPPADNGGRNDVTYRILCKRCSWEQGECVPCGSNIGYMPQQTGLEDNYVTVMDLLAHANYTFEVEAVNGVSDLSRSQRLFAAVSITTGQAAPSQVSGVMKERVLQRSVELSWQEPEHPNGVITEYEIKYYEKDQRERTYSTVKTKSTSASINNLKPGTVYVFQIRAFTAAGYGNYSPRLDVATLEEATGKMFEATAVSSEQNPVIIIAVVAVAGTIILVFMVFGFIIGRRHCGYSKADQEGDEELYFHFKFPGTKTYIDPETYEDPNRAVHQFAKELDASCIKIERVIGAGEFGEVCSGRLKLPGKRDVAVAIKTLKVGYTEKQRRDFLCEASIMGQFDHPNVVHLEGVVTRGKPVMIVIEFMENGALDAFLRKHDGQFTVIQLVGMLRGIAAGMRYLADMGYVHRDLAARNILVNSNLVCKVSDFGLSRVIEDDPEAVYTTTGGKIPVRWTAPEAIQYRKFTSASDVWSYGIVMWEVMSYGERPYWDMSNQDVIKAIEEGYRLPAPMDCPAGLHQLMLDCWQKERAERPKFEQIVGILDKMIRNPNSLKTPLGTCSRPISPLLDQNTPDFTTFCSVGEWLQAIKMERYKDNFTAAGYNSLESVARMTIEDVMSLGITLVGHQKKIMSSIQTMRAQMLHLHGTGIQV

Turning to `CN(C(=O)CN1CCOCC1)c1ccc2sc3c(-c4cccc5c(=O)cc(N6CC7CCC(C6)O7)oc45)cccc3c2c1` [NU5455], the inhibition at 1 µM was 1.2%.
